Measurements: US9908908B2, “Tenofovir prodrug and pharmaceutical uses thereof” (Jiangsu Hansoh Pharmaceutical Co., Ltd., priority 2012, dated 2018)
Like-named read-outs stand apart in the source and are kept apart here.

Legend:
[1] = tested on: hepatitis B virus (HBV); experiment: In vitro anti-hepatitis B virus activity (HBV DNA-replication, dot blot); format: cell-based
Protocol: HepG 2.2.15 cell was used as the hepatitis B virus (HBV) vehicle to determine the inhibition effect of the compounds on DNA-replication of HBV.
Test method: HepG 2.2.15 cells were seeded into a 96-well culture plate. Various dilutions of test samples and positive control were added, respectively, after 24 hours, in which a cell control well was set. The medium was replaced with culture containing various dilutions of test samples after 72 hours. The supernatants and HepG 2.2.15 cells were collected after 6 days of culture.

[2] = tested on: HepG 2.2.15 cells; experiment: Cytotoxicity test (CellTiter-Blue); format: cell-based
Protocol: (§1) Test method: HepG 2.2.15 cells were seeded into a 96-well culture plate and various dilutions of test samples and positive control were added, respectively. CellTiter-Blue (Promega, Catalog #G8081) was added for 6 days of culture.

[3] = Cytotoxicity test (CellTiter-Blue); format: cell-based; conditions: human; HepG 2.2.15 cells, 6 days of culture; read-out: Toxicity CC50
Protocol: as §1

[4] = Cytotoxicity in cells free of virus (anti-HIV test); format: cell-based; conditions: human
Protocol: (§2) 3) Cells for the cytotoxic detection were incubated in a 384-well plate for 3 days.
(§3) 6) Luminescent signal of the cells free of virus was detected to evaluate cytotoxicity after incubation for 3 days.
(§4) 7) The antiviral activity and cytotoxicity were calculated according to the following equation: Antiviral activity (%)=100−(Detection value−Maximum value)/(Minimum value−Maximum value)*100 Cytotoxicity (%)=100−(Detection value−Maximum value)/(Minimum value−Maximum value)*100 8) EC50 and CC50 were calculated with Fit Curve of Graphpad Prism 5 (the results are shown in Table 4).

[5] = tested on: HIV-1 (IIIb); experiment: microbe, parasite or virus in culture; format: cell-based
Protocol: 1) MT-2 cells were infected with HIV-1 (IIIb) to form multiplicity of infection (MOI) 0.01 TCID50 per cell.
2) The mixture of virus and cells was incubated in a 384-well plate for 3 days.
4) The supernatant was transferred to a new plate and incubated with reporter cells (HeLa) for 24 hours.
5) Detecting beta-GAL activity to evaluate anti-HIV activity.
as §4

[6] = background statement; cited from earlier work
[7] = Stability test in acidic medium (hydrochloric acid solution pH 2.0); format: physicochemical; conditions: for Change value / Purity after 6 hours / Initial purity: Acid medium (pH = 2); for Change value / Purity after 6 hours: 37° C., 6 hours; for Initial purity: initial sample
Protocol: 4.5 mL of 36% hydrochloric acid was transferred into a 1 L volumetric flask and diluted with water to 1 L to prepare a stock solution. Then 10 mL of the above solution was transferred into a 50 mL volumetric flask and diluted with water to 50 mL to prepare the hydrochloric acid solution with pH 2.0.
5.0 mg of GS-7340 were transferred into a 5 mL volumetric flask and mixed with 2.5 mL of isopropyl alcohol to dissolve GS-7340, and then the hydrochloric acid solution (pH 2.0) was added to 5 mL. The solution was shaken well and filtered for using.
5.0 mg of compound Ia1 were transferred into a 5 mL volumetric flask and mixed with 2.5 mL of isopropyl alcohol to dissolve compound Ia1, and then the hydrochloric acid solution (pH 2.0) was added to 5 mL. The solution was shaken well and filtered for using.
(§5) The prepared sample was filled into the chromatography vial as the initial sample and immediately injected. Meanwhile, the rest of the samples were put into a 37° C. incubator, and were injected into the HPLC system after 6 hours.

[8] = Metabolic stability in fresh human whole blood and distribution test in PBMCs; format: in vitro ADME; conditions: for active metabolite-tenofovir detected in plasma (in words): after incubation with fresh human whole blood
Protocol: Different tenofovir prodrugs were incubated together with fresh human whole blood at 37° C. Plasma and PBMCs were separated, respectively, from the whole blood (Ficoll density gradient centrifugation method) after 1 hour and 2 hours incubation to determine the concentrations of prototype drug and metabolite-tenofovir in plasma and PBMCs. The PBMCs were counted via cell counter and each PBMC was treated as 200 fL to calculate intracellular drug concentration.
20 μL of internal standard solution (400 ng/mL SN-38 solution), […], methanol-water (50:50, v/v), and 200 μL acetonitrile were added to 100 μL plasma sample or PBMC sample, respectively. The mixture was mixed by vortex for 1 min and centrifuged for 5 min (14000 rpm). 20 μL supernatant and 180 μl mobile phase were mixed by vortex for 1 min, and 10 μL of the above mixture was injected into LC/MS/MS for analysis.

[9] = Stability test in simulated gastric juice (pepsin, pH 2.0); format: physicochemical; conditions: for Change value / Purity after 6 hours: 37° C., 6 hours; for Initial purity: initial sample
Protocol: 10 ml of the stock solution and 500.0 mg of pepsin were transferred into a 50 mL volumetric flask and diluted with water to 50 ml, which was then subjected to ultrasound to dissolve the pepsin (the solution was not clear now) and then filtered to give a clear solution as simulated gastric juice.
5.0 mg of GS-7340 were transferred into a 5 mL volumetric flask and mixed with 2.5 mL of isopropyl alcohol to dissolve GS-7340, and then the simulated gastric juice was added to 5 mL. The solution was shaken well and filtered for using.
5.0 mg of compound Ia1 were transferred into a 5 mL volumetric flask and mixed with 2.5 mL of isopropyl alcohol to dissolve compound Ia1, and then the simulated gastric juice was added to 5 mL. The solution was shaken well and filtered for using.
as §5

[10] = tested on: MT-2 cells; experiment: Cytotoxicity in cells free of virus (anti-HIV test); format: cell-based
Protocol: as §2, §3, §4

[11] = Hepatitis B virus, HepG2.2.15, 144 h
[12] = cells free of virus, 3 days, luminescent signal, read-out: Toxicity CC50
[13] = Human immunodeficiency virus 1, IIIB, MT2, 72 h
[14] = 0 hour, initial concentration, fresh human whole blood
[15] = 1 hour incubation at 37° C., in PBMCs
[16] = 1 hour incubation at 37° C., in plasma
[17] = 2 hour incubation at 37° C., in PBMCs
[18] = 2 hour incubation at 37° C., in plasma

SMILES: CC(C)OC(=O)C(C)(C)N[P@](=O)(CO[C@H](C)Cn1cnc2c(N)ncnc21)Oc1cccc2ccccc12 [If1]
- inhibitory effect on HBV-DNA replication (in words) ([1]; HepG 2.2.15 cells): significant inhibitory effect
- inhibitory effect on HBV-DNA replication compared with positive control GS7340 ([1]; HepG 2.2.15 cells): better than that of the positive control GS7340
- IC50 [1, 11]: 7.5 nM
- cytotoxicity (in words) [2]: without cytotoxicity
- CC50 at 6 days [3]: > 10000 nM

SMILES: CC(C)OC(=O)OCOP(=O)(CO[C@H](C)Cn1cnc2c(N)ncnc21)OCOC(=O)OC(C)C [Tenofovir Disoproxil, reference compound]
- CC50 at 3 days [4]: 16900 nM
- EC50 ([5]; Human immunodeficiency virus 1, MT2, 72 h, MT-2 cells infected with HIV-1 (IIIb), 3 days, read-out: EC50): 11 nM

SMILES: CC(C)OC(=O)C(C)(C)N[P@](=O)(CO[C@H](C)Cn1cnc2c(N)ncnc21)Oc1ccc(Cl)cc1 [Ic1]
- inhibitory effect on HBV-DNA replication (in words) ([1]; HepG 2.2.15 cells): significant inhibitory effect
- inhibitory effect on HBV-DNA replication compared with positive control GS7340 ([1]; HepG 2.2.15 cells): better than that of the positive control GS7340
- IC50 [1, 11]: 5.3 nM
- cytotoxicity (in words) [2]: without cytotoxicity
- CC50 at 6 days [3]: > 10000 nM

SMILES: CC(C)OC(=O)C(C)(C)N[P@](=O)(CO[C@H](C)Cn1cnc2c(N)ncnc21)Oc1ccc(C(F)(F)F)cc1 [Ij1]
- inhibitory effect on HBV-DNA replication (in words) ([1]; HepG 2.2.15 cells): significant inhibitory effect
- inhibitory effect on HBV-DNA replication compared with positive control GS7340 ([1]; HepG 2.2.15 cells): better than that of the positive control GS7340
- IC50 [1, 11]: 7 nM
- cytotoxicity (in words) [2]: without cytotoxicity
- CC50 at 6 days [3]: > 10000 nM

SMILES: CC(C)OC(=O)[C@H](C)N[P@](=O)(CO[C@H](C)Cn1cnc2c(N)ncnc21)Oc1ccccc1 [GS-7340, reference compound]
- IC50 [1, 11]: 14 nM
- CC50 at 3 days [4, 12]: > 150000 nM
- metabolite-tenofovir detected in plasma [6]: 1-2%
- total concentration of the active ingredient in PBMCs relative to tenofovir [6]: 30 times
- total concentration of the active ingredient in PBMCs relative to tenofovir disoproxil [6]: 10 times
- Change value [7]: 3.2%
- Purity after 6 hours [7]: 95.5%
- Initial purity [7]: 98.7%
- CC50 at 6 days [3]: > 10000 nM
- EC50 [5, 13]: 12 nM
- Prototype concentration [8, 14]: 16.9 µM
- Prototype concentration [8, 15]: 2448 µM
- Prototype concentration [8, 16]: 14.5 µM
- change of active metabolite-tenofovir concentration in PBMCs over the incubation time (in words) ([8]; 1 hour to 2 hours): almost the same
- change of active metabolite-tenofovir released in plasma over the incubation time (in words) ([8]; 1 hour to 2 hours): increased significantly
- Prototype concentration [8, 17]: 2357 µM
- Prototype concentration [8, 18]: 13.0 µM
- active metabolite-tenofovir detected in plasma (in words) [8]: certain active metabolite-tenofovir was detected
- Change value [9]: 4.3%
- Purity after 6 hours [9]: 94.4%
- Initial purity [9]: 98.7%

SMILES: CC(C)OC(=O)C1(N[P@](=O)(CO[C@H](C)Cn2cnc3c(N)ncnc32)Oc2ccccc2)CC1 [Ib1]
- inhibitory effect on HBV-DNA replication (in words) ([1]; HepG 2.2.15 cells): significant inhibitory effect
- IC50 [1, 11]: 15 nM
- cytotoxicity (in words) [2]: without cytotoxicity
- CC50 at 6 days [3]: > 10000 nM

SMILES: CC(C)OC(=O)C(C)(C)N[P@@](=O)(CO[C@H](C)Cn1cnc2c(N)ncnc21)Oc1ccccc1 [Ia2]
- IC50 [1, 11]: 32 nM
- CC50 at 6 days [3]: > 10000 nM

SMILES: Cc1cccc(C)c1O[P@@](=O)(CO[C@H](C)Cn1cnc2c(N)ncnc21)NC(C)(C)C(=O)OC(C)C [Ih1]
- inhibitory effect on HBV-DNA replication (in words) ([1]; HepG 2.2.15 cells): significant inhibitory effect
- inhibitory effect on HBV-DNA replication compared with positive control GS7340 ([1]; HepG 2.2.15 cells): better than that of the positive control GS7340
- IC50 [1, 11]: 5.9 nM
- cytotoxicity (in words) [2]: without cytotoxicity
- CC50 at 6 days [3]: > 10000 nM

SMILES: CC(C)OC(=O)C(C)(C)N[P@](=O)(CO[C@H](C)Cn1cnc2c(N)ncnc21)Oc1ccccc1 [Ia1]
- inhibitory effect on HBV-DNA replication (in words) ([1]; HepG 2.2.15 cells): significant inhibitory effect
- inhibitory effect on HBV-DNA replication compared with positive control GS7340 ([1]; HepG 2.2.15 cells): better than that of the positive control GS7340
- IC50 [1, 11]: 5 nM
- cytotoxicity (in words) [10]: no cytotoxicity
- CC50 at 3 days [4, 12]: > 150000 nM
- Change value [7]: 0.6%
- Purity after 6 hours [7]: 98.1%
- Initial purity [7]: 98.7%
- stability compared to GS-7340 (in words) ([7]; acid medium and simulated gastric juice): significantly improved
- cytotoxicity (in words) [2]: without cytotoxicity
- CC50 at 6 days [3]: > 10000 nM
- inhibitory effect on HIV virus (in words) [5]: strong inhibitory effect
- EC50 [5, 13]: 8 nM
- Prototype concentration [8, 14]: 12.4 µM
- Prototype concentration [8, 15]: 1528 µM
- Prototype concentration [8, 16]: 12.3 µM
- change of active metabolite-tenofovir concentration in PBMCs over the incubation time (in words) ([8]; 1 hour to 2 hours): increased significantly
- Prototype concentration [8, 17]: 1282 µM
- Prototype concentration [8, 18]: 12.2 µM
- concentration of active metabolite-tenofovir in PBMCs relative to GS-7340 ([8]; after incubation for 2 hours): about three times
- active metabolite-tenofovir detected in plasma (in words) [8]: no active metabolite-tenofovir was detected
- stability in plasma (in words) ([8]; fresh human whole blood, compared with GS-7340): significantly better than the positive control GS-7340
- Change value [9]: 0.5%
- Purity after 6 hours [9]: 98.2%
- Initial purity [9]: 98.7%

SMILES: COc1ccc(O[P@@](=O)(CO[C@H](C)Cn2cnc3c(N)ncnc32)NC(C)(C)C(=O)OC(C)C)cc1 [Id1]
- inhibitory effect on HBV-DNA replication (in words) ([1]; HepG 2.2.15 cells): significant inhibitory effect
- inhibitory effect on HBV-DNA replication compared with positive control GS7340 ([1]; HepG 2.2.15 cells): better than that of the positive control GS7340
- IC50 [1, 11]: 6.2 nM
- cytotoxicity (in words) [2]: without cytotoxicity
- CC50 at 6 days [3]: > 10000 nM

SMILES: CC(C)OC(=O)C(C)(C)NP(=O)(CO[C@H](C)Cn1cnc2c(N)ncnc21)Oc1ccccc1 (some centres unmarked) [Ia]
- IC50 [1, 11]: 21 nM
- CC50 at 6 days [3]: > 10000 nM

SMILES: CC(C)OC(=O)[C@H](C)N[P@](=O)(CO[C@H](C)Cn1cnc2c(N)ncnc21)Oc1ccccc1 [GS-7171, reference compound]
- IC50 ([1]; HepG 2.2.15 cells, 6 days of culture, HBV DNA-replication by dot blot, read-out: IC50): 35 nM
- CC50 ([2]; 6 days of culture, read-out: Toxicity CC50): > 10000 nM

SMILES: CC(C)OC(=O)C(C)(C)N[P@](=O)(CO[C@H](C)Cn1cnc2c(N)ncnc21)Oc1ccc(F)cc1 [Ii1]
- inhibitory effect on HBV-DNA replication compared with positive control GS7340 ([1]; HepG 2.2.15 cells): better than that of the positive control GS7340
- IC50 [1, 11]: 8.3 nM
- CC50 at 6 days [3]: > 10000 nM
